This passage reports diurnal metabolic pattern and IC90 results from patent US12239645B2, “Targeted dosing for the treatment of complement mediated disorders” (Achillion Pharmaceuticals, Inc., priority 2018, dated 2025).

Data set [1] is described as follows: Compound 2 administered to humans (diurnal metabolic pattern). The format is in vivo, human. The text has this: This could not have been predicted prior to human administration of the drug.
Data set [2] has as its system complement alternative pathway (AP) activity. Nature of the data set: MAD study: ex vivo serum AP hemolysis activity and PK-PD analysis. The format is in vivo, human. The conditions noted are these: Homo sapiens; sigmoidal model, multiple ascending dose, ex-vivo AP hemolysis, FIG. 12; read-out: modeled IC90 drug plasma concentration (90% inhibition level). As to the method:
Ex vivo serum AP hemolysis assays were conducted in 96-well microtiter plates divided into two parts, one for hemolysis and the other for serum background color subtraction. Briefly, a suspension of rabbit red blood cells (RBCs) was centrifuged at 800×g at 4° C. for 3 minutes and the supernatant was removed to get rid of the RBC debris. The RBC cell pellet was re-suspended gently with pre-chilled gelatin veronal buffer (GVB0) containing 10 mM MgEGTA to a density of 5×10^8 cells/mL. Other controls including buffer, spontaneous rabbit RBC lysis, 100% RBC lysis (in water), and normal serum control were set up alongside the test samples as well. Serum was placed in a 37° C. water-bath until mostly thawed and immediately transferred to ice bath. 20% serum was prepared with GVB0-MgEGTA buffer and kept at ice bath before testing. Reactions were carried out in a 96 well plate by mixing 50 μl of 20% serum with equal volume of GVB0-MgEGTA buffer and then quickly adding 20 μl of RBC suspension. The plate was shaken on a microtiter plate shaker for 5 seconds and then incubated at 37° C. for 30 minutes. Halfway during the incubation period, the plate was shaken for another 5 seconds as described above. At the end of the incubation, the plate was centrifuged at 800×g at 4° C. for 3 minutes to pellet the un-lysed rabbit RBCs. 80 μl of supernatant was removed carefully from all wells and transferred to a clear flat-bottom microtiter plate for the measurement of optical absorbance at 405 nm (A405) in a Molecular Devices Spectramax Plus plate reader. AP hemolysis in each well was calculated relative to the activity of the NHS reference sample formulas as follows: Hemolysis (%)=((Hm−Bk)−(Sp−Bf))/((NH−BkNH)−(Sp−Bf))×100%
where Hm=A405 in the hemolysis well, Bk=A405 in the corresponding background well, Sp=mean A405 in the spontaneous hemolysis wells, Bf=mean A405 in the buffer alone wells, NH=mean A405 in the reference NHS wells, and BkNH=mean A405 in the corresponding background wells.
The PK-PD relationship was evaluated using time-matched plasma Compound 1 concentrations and serum AP inhibition values by non-linear regression with GraphPad Prism (La Jolla, CA) using the following two models: • 1. The simple Emax model to determine the 50% effective concentration (EC50): Y=E0+Emax×X/(EC50+X) where X=plasma Compound 1 concentration, Y=percent inhibition in the corresponding serum sample, E0=0% inhibition (pre-dose AP activity), and Emax=100% inhibition. • 2. The four-parameter sigmoidal model to determine EC50 and the 90% effective concentration (EC90): Y=E0+(Emax−E0)/(1+10^((Log EC50−X)×HillSlope)) where X, Y, E0, and Emax are defined as above (Emax model) and HillSlope=the slope factor or Hill slope. Pharmacodynamic and Pharmacokinetic Results AP Activity Measured with AP Hemolysis
A multiple ascending dose (MAD) study of Compound 1 with two additional single-dose cohorts was also completed. […] Secondary objectives included evaluation of the pharmacokinetic (PK) profile and the relationship between Compound 1 PK and pharmacodynamic (PD) characteristics, that is, the inhibition of complement alternative pathway (AP) activity (PK/PD). In the MAD study, multiple-dose pharmacokinetics and pharmacodynamics of Compound 1 were evaluated in four dose groups administered Compound 1 (40, 80, 120 and 200 mg BID) in the fasted state for 14-days (Table 3). Eight subjects received active drug in each group; eight subjects received placebo in the first dose group (40 mg) and two subjects received placebo in each of the other three dose groups. Two additional cohorts were administered Compound 1 at single doses of 240 mg (fasted subjects) and 120 mg (fed subjects) (Table 3). The two single-dose cohorts each comprised six subjects receiving active drug and two subjects receiving placebo. […]

Converted amounts (≈) assume the structure as drawn.

On to `CC(=O)c1nn(CC(=O)N2C[C@H](F)C[C@H]2C(=O)Nc2cccc(Br)n2)c2ccc(-c3cnc(C)nc3)cc12` [Compound 2, (2S,4R)-1-(2-(3-acetyl-5-(2-methylpyrimidin-5-yl)-1H-indazol-1-yl)acetyl)-N-(6-bromopyridin-2-yl)-4-fluoropyrrolidine-2-carboxamide], for which the diurnal metabolic pattern entry in data set [1] is on record as “does not exhibit a diurnal metabolic pattern”. In the case of `CC(=O)c1nn(CC(=O)N2C[C@H](F)C[C@H]2C(=O)Nc2cccc(Br)n2)c2ccc(-c3cnc(C)nc3)cc12` [Danicopan, reference compound], the IC90 in data set [2] was determined as 0.235 µg/mL (≈ 0.405 µM).
